For orientation: IC50 means the point on the concentration scale where inhibition reaches its midpoint. As usually defined, the CC50 is the concentration giving 50% cytotoxicity.

A value given as a limit tells only on which side of the number the result lay.

The subject of one data set is winter oilseed rape. Description: Field experiment, winter oilseed rape, foliar spray. The data set is classed as in vivo. Particulars: 25 μM foliar spray, BBCH 50. How it is done: (§1) All field experiments were done according to criteria for Good Experimental Practices. Six repetitions (10 m^2 each) were used per one variant. Field trials were not treated by growth regulators and fungicides, except of applied compound 1-furfuryl-[1,2,3]thiadiazol-5-yl-urea. N-furfuryl-N′-1,2,3-thiadiazol-5-yl-urea was applied once at the precise time (extension growth BBCH 50), by foliar spray at a concentration of 25 μM. For each variant at least 50 plants were used to obtain morphology parameters. Statistical evaluation was executed in stat. program PAST v. 2.17c.

A further data set has as its system spring barley. Briefly: Field experiments, spring barley, years 2014 and 2015, foliar spray. The data set is classed as in vivo. How it is done:
as §1
All field experiments were done according to criteria for Good Experimental Practices as described in example 17. N-furfuryl-N′-1,2,3-thiadiazol-5-yl-urea was applied once at the precise time (extension growth BBCH 50), by foliar spray at a concentration of 25 μM in a year 2014 and at a concentration of 5 μM in a year 2015. For each variant at least 50 plants were used to obtain morphology parameters. Statistical evaluation was executed in stat. program PAST v. 2.17c.

The test system of data set [1] is detached leaf segments of Triticum aestivum cv. Hereward. Description: Senescence bioassay on wheat leaf segments in dark/light conditions. The following applies: foliar, 168 h, dark/light 8/16, 22° C., 7 days, read-out: Senescence bioassay (IC50). On the procedure:
(§2) Seeds of winter wheat, Triticum aestivum cv. Hereward, were washed under running water for 24 hours and then sown on perlite soaked with Hogland's solution. They were placed in the growth chamber at 25° C. with a 16/8 h light period at 50 μmol·m^−2·s^−1. After 7 days, the first leaf was fully developed and the second leaf had started to grow. A tip section of the first leaf, approximately 4 cm long, was removed from 4 seedlings and trimmed slightly to a combined weight of 100 mg. The basal ends of the four leaf tips were placed into the 96-wells plate containing 150 μL of the tested derivative solution each. The entire plate was inserted into a plastic box lined with paper tissues soaked in distilled water to prevent leaf sections from drying out. After 96 h incubation in the dark at 25° C., the leaves were removed and chlorophyll extracted by heating at 80° C. for 10 min in 5 mL of 80% ethanol (v/v). The sample volume was then restored to 5 mL by the addition of 80% ethanol (v/v). The absorbance of the extract was recorded at 665 nm. In addition, chlorophyll extracts from fresh leaves and leaf tips incubated in deionised water were measured. The results are means of five replicates and the entire test was repeated at least twice. […] The compounds to be tested were dissolved in dimethylsulfoxide (DMSO) and the solution brought up to 10^−3 M with distilled water. […] The IC50 values were determined for standard (BAP) and novel tested compounds.
The ability of the novel compounds to retard chlorophyll degradation in detached wheat leaves was tested also in the light conditions. The experiment was performed as described in Example 7 with modifications as follows—the incubation of the leaves with the compounds was done in the dark/light conditions 8/16 (light—100 μmol·m^−2·s^−1) at 22° C. for 7 days. […] The newly prepared substituted 1,2,3-thiadiazol-5-yl urea derivatives of the invention are much stronger anti-senescent compounds in comparison to the BAP in retarding senescence under optimal (dark/light) conditions.

The test system of a further data set is wheat leaves. Briefly: Ethylene production (defoliating activity) assay. On the set-up: species or system Triticum aestivum. The following applies: 10 μM; for Ethylene produced: 96 h in the dark at 25° C., control 270 (±15). On the procedure: We investigated the effect of the compounds of the invention on ethylene production in wheat leaves. The leaves were obtained as described in Example 8, placed in 5 mL glass vials and immersed at 10 μM solutions of tested compounds of the invention or TDZ. Distilled water was used as a control treatment. After 96 h incubation in the dark at 25° C., 1 mL of air was taken from the vials and content of ethylene in it was determined using gas chromatography with the flame ionization detector (GC-FID) method described by Fišerová et al. (Fišerová H, Kula E, Klemš M, Reinöhl V (2001) Phytohormones as indicators of the degree of damage in birch (Betula pendula). Biológia 56: 405-409).

The subject of data set [2] is Arabidopsis thaliana (wild-type Col-0). Briefly: Root growth and lateral root formation of Arabidopsis. The following applies: 10 nM, two weeks after transfer. It is filed as in vivo. On the procedure: To investigate in vivo effect of the new derivatives on the root growth and development, seeds of Arabidopsis thaliana (wild-type Col-0) were surface sterilized and sown on vertical plates on half-strength Murashige-Skoog medium (supplied with 0.1% sucrose and 6 g/L phytagel) containing 10 nM BAP or 10 nM 1,2,3-thiadiazol-5-yl-urea derivative, or 0.01% DMSO (solvent control). After vernalization (4 days in the dark, 4° C.) plates were transferred into the growth chamber (22° C., 16/8 light/dark). Two weeks after transfer, seedlings were photographed and root elongation and lateral root formation was scored using Scion image software (Scion Corp., Frederick, Md., USA). At least 40 plants were measured for each treatment.

Data set [3] concerns detached leaves of Triticum aestivum cv. Hereward. Briefly: Membrane lipid peroxidation (MDA, TBA method) in detached wheat leaves in the dark. Particulars: four days in the dark. On the procedure: A typical symptom associated with senescence as a direct consequence of increased reactive oxygen species is membrane lipid peroxidation which produces malondialdehyde (MDA). Therefore the levels of MDA, a decomposition product of lipid peroxidation, were measured in detached wheat leaves that were exposed to the prepared novel derivatives or BAP for four days in the dark as described in Example 7. MDA levels were measured using a thiobarbituric acid (TBA) method. In detail, 100 mg of fresh plant material was homogenized by high speed shaking in a ball mill (MM301, Retsch, Germany) with 1 mL of 70% methanol. The crude extract was centrifuged at 10,000×g for 5 min, and 100 μL aliquot of supernatant was vortexed with 100 μL of 0.5% (w/v) TBA containing 0.1% (w/v) trichloroacetic acid, and the resulting solution was then incubated for 30 min at 95° C. The samples were quickly cooled on ice and centrifuged for 5 min at 1000 g. The absorbance of supernatant was measured at 532 nm with background subtraction at 600 nm and the amount of MDA-TBA complex was calculated from the coefficient of absorbance 155 mM^−1 cm^−1.

Data set [4] is described as follows: Toxicity towards human skin fibroblasts (Calcein AM assay). The data set is classed as cell-based. How it is done:
Cytotoxicity of the compounds to human skin fibroblasts (BJ cell line) was determined in a standard Calceinovém AM test. Cells were maintained in plastic tissue culture flasks and grown in Dulbecco's modified Eagle's medium for cell culture (DMEM) at 37° C. in 5% CO2 and 100% humidity. Cells were placed into 96-well microtiter plates (Nunc, Denmark) and after 12 hours pre-incubation, the tested compound was added to a final concentration ranging from […]. Cells were incubated for 72 hours. At the end of incubation period Calcein AM was added in PBS to a final concentration of […]. After 1 hour of incubation fluorescence was measured at 485/538 nm (ex/em wavelength) using Fluoroskan Ascent (Labsystems, Finland). IC50 values (the concentration causing reduction of calcein AM conversion to 50%) were calculated from the curves obtained. All experiments were repeated four times with a maximum deviation of 15%. Due to the limited solubility of substances in water, all the tested compounds were dissolved in DMSO and diluted with water to a final concentration.

Data set [5] relates to detached leaf segments of Triticum aestivum cv. Hereward. Description: Senescence bioassay on wheat leaf segments in dark conditions. Particulars: Triticum aestivum, foliar; dark, 96 h, 25° C., chlorophyll absorbance 665 nm; read-out: Senescence bioassay (IC50). How it is done: as §2

With `O=C(NCc1ccco1)Nc1cnns1` [N-furfuryl-N′-1,2,3-thiadiazol-5-yl-urea], the “Seed yield, % of control” value in the data set with winter oilseed rape is 120.9%; with spring barley (Year 2014, 25 μM foliar spray), 104.8%; in the data set on spring barley (Year 2015, 5 μM foliar spray), 106.8%. In the data set with winter oilseed rape, the “WTK, % of control” value is reported as 110%. Also, the “grains per ear, % of control” value with spring barley (Year 2014, 25 μM foliar spray) was 104.6%.
With `C/C(=C\CNC(=O)Nc1cnns1)CO` [Compound 20, 1-((E)-4-hydroxy-3-methyl-but-2-enyl)-3-[1,2,3]thiadiazol-5-yl-urea], the IC50 in data set [1] was found to be 0.61 µM. Besides, in the data set on wheat leaves (96 h), the “effect on ethylene evolution compared to control (in words)” value is given as “inhibition of ethylene evolution”. In addition, the Ethylene produced in the data set on wheat leaves was 254 (±22) nL/g FW. In data set [2], the Lateral root number was 11 (±6) and the Primary root lenght is 32 (±9) mm. In addition, the MDA in data set [3] is 15.8 (±0.7) nmol/g FW. For the same compound, the CC50 at 72 h in data set [4] was over 100 µM. Moreover, the IC50 in data set [5] came out at 12.6 µM.
As to `COCCCNC(=O)Nc1cnns1` [Compound 7, 1-(3-methoxy-propyl)-3-[1,2,3]thiadiazol-5-yl-urea], the IC50 came to 0.4 µM in data set [1] and 11.4 µM in data set [5]. Besides, the Ethylene produced in the data set with wheat leaves is reported as 312 (±18) nL/g FW. Further, the Lateral root number in data set [2] is given as 14 (±10). Besides, the Primary root lenght in data set [2] is recorded as 40 (±10) mm. In data set [3], the MDA is on record as 14.4 (±0.8) nmol/g FW. The CC50 at 72 h in data set [4] is over 100 µM.
Regarding `C=CCNC(=O)Nc1cnns1` [Compound 50, 1-Allyl-3-[1,2,3]thiadiazol-5-yl-urea], the half-maximal inhibitory concentration (IC50) in data set [1] worked out at 0.25 µM. In addition, in the data set with wheat leaves, the Ethylene produced was 279 (±18) nL/g FW. Further, in data set [2], the Lateral root number is recorded as 14 (±10) and the Primary root lenght is 42 (±12) mm. The MDA in data set [3] was 17.4 (±1.3) nmol/g FW. In addition, in data set [4], the CC50 at 72 h was over 100 µM. In data set [5], the IC50 worked out at 7.1 µM.
Turning to `CC(O)CNC(=O)Nc1cnns1` (stereo not shown) [Compound 25, 1-(2-Hydroxy-propyl)-3-[1,2,3]thiadiazol-5-yl-urea], the IC50 is 0.1 µM in data set [1] and 3.5 µM in data set [5]. Also, in the data set with wheat leaves, the Ethylene produced was 281 (±31) nL/g FW. Further, in data set [2], the Lateral root number is given as 12 (±8). Besides, the Primary root lenght in data set [2] is 35 (±0.8) mm. Further, in data set [3], the MDA is listed as 12.6 (±0.83) nmol/g FW. In addition, the CC50 at 72 h in data set [4] was over 100 µM.

Values taken from patent publication US9993002B2, “1,2,3-thiadiazol-5yl-urea derivatives, use thereof for regulating plant senescence and preparations containing these derivatives” (USTAV EXPERIMENTALNI BOTANIKY AV CR, V.V.I., priority 2014, dated 2018).
